Tests used:
ERs = molecular target: T1, ERs (Homo sapiens, UniProt P03372); experiment: ER transactivation assay in ERE-Luc B17 cells (luciferase reporter); assay type: cell-based; conditions: for EC50: ERE-Luc B17 cells (MCF-7 clone), 24 h, luciferase activity, sigmoidal dose-response, read-out: EC50 (transactivation potency); for fold induction at 10 µM / activity on ERs: ERE-Luc B17 cells; for fold induction at 10 µM: 10^-5 M of compound respect to vehicle
T1 construct: endogenous in cells; host or cells: MCF-7, clone ERE-Luc B17 (only the luciferase reporter is transfected)
T1 sequence (P03372 1-595): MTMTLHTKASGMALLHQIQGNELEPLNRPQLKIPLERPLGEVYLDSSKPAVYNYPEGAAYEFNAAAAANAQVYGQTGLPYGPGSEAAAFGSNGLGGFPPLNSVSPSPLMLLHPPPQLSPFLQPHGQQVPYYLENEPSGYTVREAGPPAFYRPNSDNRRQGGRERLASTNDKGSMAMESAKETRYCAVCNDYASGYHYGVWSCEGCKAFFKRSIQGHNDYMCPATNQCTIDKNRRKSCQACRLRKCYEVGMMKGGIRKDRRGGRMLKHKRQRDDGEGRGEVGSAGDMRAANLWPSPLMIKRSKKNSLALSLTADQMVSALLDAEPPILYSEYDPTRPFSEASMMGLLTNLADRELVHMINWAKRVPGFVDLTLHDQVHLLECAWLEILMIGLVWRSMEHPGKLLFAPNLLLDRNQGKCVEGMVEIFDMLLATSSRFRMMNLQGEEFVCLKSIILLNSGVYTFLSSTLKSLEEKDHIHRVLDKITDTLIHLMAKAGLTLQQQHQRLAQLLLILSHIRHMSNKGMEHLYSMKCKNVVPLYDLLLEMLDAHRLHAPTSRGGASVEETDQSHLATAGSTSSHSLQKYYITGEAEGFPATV
Description: The ability of the novel compounds to transcriptionally activate ERs was tested in ERE-Luc B 17 cells, a clone of the breast cancer cell line MCF-7 stably transfected with a reporter constituted by the luciferase gene driven by an estrogen-regulated synthetic promoter previously generated and tested in our laboratories.
Cells were split twice a week by seeding 2 × 10^6 cells in 100 mm diameter Petri (Corning) dishes.
After 24 h cells were rinsed once with PBS before preparing the protein extract for the determination of luciferase content. Each experiment was carried out in duplicate.
Luciferase enzymatic activity was measured in cells or selected tissue homogenates by a luminometer (Glomax™96 microplate luminometer; Promega) using Promega standard luciferin (Beetle Luciferin Potassium Salt) and expressed as Relative Light Units over 10 sec/μg protein (RLU/μg protein). Proteins concentrations were measured by Bradford.
Analysis of transactivation data and calculation of EC50 values were performed by means of sigmoidal dose-response (variable slope) using PRISM5 software (GraphPad Software Inc.).

[1] = tested on: ER transcriptional activity; experiment: In vivo BLI time course in wounded ovariectomized ERE-Luc mice, compounds s.c. around the wound; parameters: species or system mouse
Description: To study the estrogenic and healing properties of the two compounds, we generated a wound in the ERE-Luc mouse model and tested the activity of the two compounds administered s.c. in the area surrounding the wound as described in the methodology section.
Each group was composed of 4 ERE-Luc females’ mice ovariectomized 2 weeks’ prior the experiment to avoid any interference due to endogenous estrogens. Photon emission was measured in the living animals three times: at 0, 3 and 6 h after s.c. injection.
(§1) ERE-Luc and MITO-Luc mice were ovariectomized at two months of age; the experiment was done 2 weeks after surgery to allow the animals to recover and to decrease the levels of circulating estrogens. The animals were fed ad libitum with a special estrogen free diet (AIN 93 M, Mucedola) (Ciana et al. Endocrinology 2005) and housed in individually ventilated plastic cages within a temperature range of 22–25 °C, relative humidity of 50% ± 10% and under an automatic cycle of 12 h light/dark (lights on at 07:00 am). All animal experimentation was carried out in accordance with the ARRIVE and European Guidelines for Animal Care. All animal experiments were approved by the Italian Ministry of Research and University and controlled by a Departmental panel of experts. For the correct dosage of the compounds, the body weight of the animals (on empty stomach, fasted for at least 12–14 hours) was determined immediately before the treatment.
(§2) Ovariectomy was carried out as previously described. Wound healing was done after shaving by VEET depilatory cream a day before the treatment. The 1 cm full-thickness incisional wound was made through the skin and panniculus carnosus muscle of ovariectomized MITO-luc using a surgical scalpel (blade n°10, carbon steel, Swann-Morton Ltd). Round full-thickness wounds were done by cutting out a section of full-thickness skin (around 9 mm in diameter) using fine scissors on the dorsal skin of the isoflurane-anesthetized animal. For in vivo treatment the compounds were administered onto the subcutaneous area surrounding the wound by multiple subcutaneous injection, immediately after the generation of the wound.
For the semi-quantitative analysis of in vivo photon emission, animals were injected i.p. with 80 mg/kg of luciferin (Beetle Luciferin Potassium Salt; Promega, Madison, WI, USA) 15 min prior the imaging session. For the imaging, mice were anaesthetized using isofluorane (Isofluorane-Vet; Merial, Lyon, France) and kept under anesthesia during the 5 minutes of the session carried out with a CCD camera: both ventral and dorsal acquisition (Xenogen IVIS Lumina System; Caliper, PerkinElmer company). Photon emission in selected body areas was measured using the Living Image Software (Caliper, PerkinElmer company). The analysis was done in ventral view: whole body, thymus, hepatic area, abdomen, limbs, vagina and in dorsal view in wound area and expressed as photon/second/cm2/steradiant (p/s/cm2/sr).

[2] = parameters: method as in PMID 19718805; conditions: cited from earlier work
ERE-Luc mice = experiment: Uterus weight of ERE-Luc mice; assay type: in vivo, mouse; conditions: 20 µg/kg s.c., 6 h after treatment
Text: The final study aiming at investigating the systemic effect of the NCE was done by measuring the uterus weight of all treated animal as the golden standard for the quantitative measure of estrogenic compounds.

[3] = tested on: MITO-Luc mice (reporter of mitosis); experiment: Proliferation in the wound area, in vivo BLI of MITO-Luc mice; parameters: species or system mouse
Text: Wound healing is a dynamic process consisting of four continuous, overlapping, and precisely programmed phases: hemostasis, inflammation, proliferation and tissue growth (proliferation) and remodeling (maturation). The healing effect of estrogens may be exerted at several levels, certainly the ability of the hormone to accelerate macrophage polarization towards the M2-reparative polarization stage plays a relevant role, however estrogens may also facilitate local cell proliferation and the formation of the granulation tissue, epithelialization, and wound contraction.
The experiments were done with the 1e compound as completely deprived of any activity on the uterus (Fig. 6). […] Photon emission was measured in the wound area at the following time: 0, 24, 48 and 72 hours post-treatment.
as §1
as §2, with “For in vivo treatment the compounds were administered onto the subcutaneous area surrounding the wound by multiple subcutaneous injection, immediately after the generation of the wound.” left out
For the semi-quantitative analysis of in vivo photon emission, animals were injected i.p. with 80 mg/kg of luciferin (Beetle Luciferin Potassium Salt; Promega, Madison, WI, USA) 15 min prior the imaging session. […] Photon emission in selected body areas was measured using the Living Image Software (Caliper, PerkinElmer company). The analysis was done in ventral view: whole body, thymus, hepatic area, abdomen, limbs, vagina and in dorsal view in wound area and expressed as photon/second/cm2/steradiant (p/s/cm2/sr).

MITO-Luc mice [4] = experiment: Macrophage count (Iba1 immunohistochemistry) around the wound site; assay type: in vivo, mouse; conditions: 20 µg/kg s.c., 72 hours after treatment
Description: To better understand whether the healing effect of 1e could be attributed to its anti-inflammatory action, at the end of in vivo imaging (72 hours after treatments) the tissue surrounding the wound was dissected and subjected immunohistochemical analysis using the pan macrophage marker Iba1. […] This observation confirmed that the estrogenic compounds were able to regulate the immune response at local level.
In particular, the criteria for the assignation of granulations value are: 1 = wound bed partially covered with granulation tissue; 2 = thin granulation over the whole wound bed; 3 = thick granulation over the whole wound bed. Evaluation of macrophages was done through a specific antibody and digital image analysis: 4 µm sections from each wound healing sample were immunostained with primary rabbit […] antibody against Iba1 antigen (Wako; #019-19741) to assess the number of macrophages.
The number of positive cells were counted using the ImageJ analysis program (http://rsb.info.nih.gov/ij/) in 400x microscopic fields selected at the periphery of the wound area.

MITO-Luc mice [5] = experiment: Wound area measurement in MITO-Luc mice; assay type: in vivo, mouse; conditions: 20 µg/kg s.c., 72 hours after treatment (vehicle 50%)
Description: To investigate to which extent the increased proliferation observed after the pharmacological treatments was functional to the healing process, we measured the size of the wound (Fig. 9a).
as §2

MITO-Luc mice [6] = experiment: Granulation tissue histoscore of round full-thickness wound at day 10; assay type: in vivo, mouse; conditions: 20 µg/kg s.c., day 10, round wound, scale 1-3 (vehicle 0.3)
Description: The measure of photon emission from the wound area was done for several days after the wounding. 3 days after treatment the bioluminescent signal is highest (Fig. 10 Panel a).
as §2
At the time of euthanasia, the wounds with surrounding healthy tissue were excised, distended on a strip of hard paper and fixed in 10% buffered formalin (pH = 6). […] For histopathological examination 4 µm sections were routinely stained with Hematoxylin-Eosin (HE) and evaluated under a light microscope. The degree of re-epithelialization, the type and amount of granulation tissue and inflammation, which are the main features of wound healing, were scored separately. […]

`COC(=O)CCC#C[C@]1(O)CC[C@H]2[C@@H]3CCc4cc(O)ccc4[C@H]3CC[C@@]21C` [1a, 3,17β-Hydroxy-17α-(4′carbomethoxy-1′-butyn-1′-yl)estra-1,3,5-(10)-triene] gave an EC50 (ERs) of 920 nM and a fold induction at 10 µM (ERs) of 4.3.
With `CCOC(=O)CCC#C[C@]1(O)CC[C@H]2[C@@H]3CCc4cc(O)ccc4[C@H]3CC[C@@]21C` [1b, 3,17β-Hydroxy-17α-(4′carbethoxy-1′-butyn-1′-yl)estra-1,3,5-(10)-triene] the “activity on ERs” value (ERs) was “did not show any activity”.
Work on `CCCOC(=O)CCC#C[C@]1(O)CC[C@H]2[C@@H]3CCc4cc(O)ccc4[C@H]3CC[C@@]21C` [1c, 3,17β-Hydroxy-17α-(4′carbopropoxy-1′-butyn-1′-yl)estra-1,3,5-(10)-triene] yielded an EC50 (ERs) of 2300 nM and a fold induction at 10 µM (ERs) of 2.6.
With `CC(C)OC(=O)CCC#C[C@]1(O)CC[C@H]2[C@@H]3CCc4cc(O)ccc4[C@H]3CC[C@@]21C` [1d, 3,17β-Hydroxy-17α-(4′carbo-iso-propoxy-1′-butyn-1′-yl)estra-1,3,5-(10)-triene] the fold induction at 10 µM (ERs) was 5.
With `CCCCCOC(=O)CCC#C[C@]1(O)CC[C@H]2[C@@H]3CCc4cc(O)ccc4[C@H]3CC[C@@]21C` [1f] the “photon emission in body areas (whole body, thymus, hepatic area, abdomen, limbs, vagina)” value ([1]; 200 µg/kg s.c. around wound, 3 or 6 h, ovx mice) was “did not observe increased photon emission in any of the body areas” and the “increase of photon emission in the wound area with respect to time 0” value ([1]; 200 µg/kg s.c., 6 hours, trend) was 20%.
`COC(=O)CCCC#C[C@]1(O)CC[C@H]2[C@@H]3CCc4cc(O)ccc4[C@H]3CC[C@@]21C` [1g, 3,17β-Hydroxy-17α-(5′carbomethoxy-1′-butyn-1′-yl)estra-1,3,5-(10)-triene] gave an EC50 (ERs) of 130 nM and a fold induction at 10 µM (ERs) of 2.5.
With `CCOC(=O)CCCC#C[C@]1(O)CC[C@H]2[C@@H]3CCc4cc(O)ccc4[C@H]3CC[C@@]21C` [1h] the “activity on ERs” value (ERs) was “did not show any activity”.
In the case of `CCCCC(=O)OCCC#C[C@]1(O)CC[C@H]2[C@@H]3CCc4cc(O)ccc4[C@H]3CC[C@@]21C` [2e], the “in vivo healing and systemic activity” value [2] is given as “substantially accelerated healing without systemic activity”.
For `C[C@]12CC[C@@H]3c4ccc(O)cc4CC[C@H]3[C@@H]1CC[C@@]2(O)C#CCCCO` [6a], the “activity on ERs” value (ERs) was “did not show any activity”.
For `C[C@]12CC[C@@H]3c4ccc(O)cc4CC[C@H]3[C@@H]1CC[C@@H]2O` [17β-estradiol, reference compound], the “uterus weight higher than average weight of controls” value (ERE-Luc mice) was 35%, the average uterus weight (ERE-Luc mice; n = 4) was 22.8 mg and the “increase of photon emission from wound” value ([3]; 20 µg/kg s.c. around wound, 72 h versus time 0, ovx MITO-Luc) was 78%. The “photon emission from the wound area” value ([3]; 20 µg/kg s.c., 48 hours after administration) was “significantly increased”, the “luciferase activity in whole body and body areas” value ([1]; 20 µg/kg s.c. around wound, ovx mice) was “induced a significant increase” and the “increase of photon emission in the wound area with respect to vehicle-treated mice” value ([1]; 20 µg/kg s.c., 6 hours) was 40%. The “number of macrophages (Iba1 positive) in the wound area lower than in controls” value (MITO-Luc mice [4]) was 44%, the wound area reduction (MITO-Luc mice [5]) was 60% and the “Score of granulation tissue (fibrosis), histoscore mean” value (MITO-Luc mice [6]) was 2.
